Calls of active or inactive are those of the source. No cut-off for these calls is given here.
Columns and labels:
Mus musculus [1] = assay: Upregulation of CCND1 expression in nude mouse xenografted with human SW1990 cells at 45 mg/kg, ip measured after 4 days by Q-PCR analysis; format: functional, organism-based; details: time 4.0 day
Mus musculus [2] = assay: Upregulation of E2F2 expression in nude mouse xenografted with human SW1990 cells at 45 mg/kg, ip measured after 4 days by Western blot analysis; format: functional, organism-based; details: time 4.0 day
SW1990 [3] = assay: Upregulation of ALDH1A1 expression in human SW1990 cells at 6 uM measured after 4 days by Western blot analysis; format: functional, cell-based; details: time 4.0 day
SW1990 [4] = assay: Induction of apoptosis in human SW1990 cells assessed as early apoptotic cells at 6 uM measured after 4 days by Annexin V-FITC and propidium iodide staining based flow cytometry (reference value: 1.62%); format: functional; details: time 4 day
SW1990 [5] = assay: Upregulation of PARP1 expression in human SW1990 cells at 6 uM measured after 4 days by Western blot analysis; format: functional, cell-based; details: time 4.0 day
SW1990 [6] = assay: Effect on Rad51 gene expression in human SW1990 cells at 6 uM by Q-PCR analysis; format: functional, cell-based
[7] = Toxicity in nude mouse xenografted with human SW1990 cells assessed as lung damage at 45 mg/kg, ip administered for 28 days by H and E staining based fluorescence microscopic analysis; format: organism-based; details: in vivo, 672 h, time 28 day
Mus musculus [8] = assay: Upregulation of CCNB1 expression in nude mouse xenografted with human SW1990 cells at 45 mg/kg, ip measured after 4 days by Western blot analysis; format: functional, organism-based; details: time 4.0 day
SW1990 [9] = assay: Upregulation of E2F2 expression in human SW1990 cells at 6 uM measured after 4 days by Western blot analysis; format: functional, cell-based; details: time 4.0 day
SW1990 [10] = assay: Effect on ALDH1A1 gene expression in human SW1990 cells at 6 uM by Q-PCR analysis; format: functional, cell-based
SW1990 [11] = assay: Effect on CDK1 gene expression in human SW1990 cells at 6 uM by Q-PCR analysis; format: functional, cell-based
Mus musculus [12] = assay: Upregulation of CDK1 expression in nude mouse xenografted with human SW1990 cells at 45 mg/kg, ip measured after 4 days by Western blot analysis; format: functional, organism-based; details: time 4.0 day
SW1990 [13] = assay: Effect on CDC25B gene expression in human SW1990 cells at 6 uM by Q-PCR analysis; format: functional, cell-based
Mus musculus [14] = assay: Upregulation of CDK1 expression in nude mouse xenografted with human SW1990 cells at 45 mg/kg, ip measured after 4 days by Q-PCR analysis; format: functional, organism-based; details: time 4.0 day
SW1990 [15] = assay: Effect on FOXM1 gene expression in human SW1990 cells at 1 to 2 uM by Q-PCR analysis; format: functional, cell-based; details: dose 1-2 µM
[16] = target: Bromodomain-containing protein 4 (Homo sapiens, UniProt O60885); assay: Inhibition of BRD4-BD1/2 (unknown origin)
SW1990 [17] = assay: Induction of DNA damage in human SW1990 cells assessed as increase in gammaH2AX expression at 1 to 2 uM incubated for 4 days by DAPI staining based laser confocal microscopic analysis; format: functional, cell-based; details: dose 1-2 µM, time 4.0 day
SW1990 [18] = assay: Effect on CCNB1 gene expression in human SW1990 cells at 1 to 2 uM by Q-PCR analysis; format: functional, cell-based; details: dose 1-2 µM
Mus musculus [19] = assay: Inhibition of homologous recombinant repair in nude mouse xenografted with human SW1990 cells assessed as reversal of olaparib-induced FOXO1 expression at 30 mg/kg, ip measured after 4 days by Western blot analysis; format: functional, organism-based; details: time 4.0 day
Mus musculus [20] = assay: Inhibition of E2F2 expression in nude mouse xenografted with human SW1990 cells at 30 mg/kg, ip measured after 4 days by Q-PCR analysis; format: functional, organism-based; details: time 4.0 day
Mus musculus [21] = assay: Inhibition of CDK1 expression in nude mouse xenografted with human SW1990 cells at 30 mg/kg, ip measured after 4 days by Western blot analysis; format: functional, organism-based; details: time 4.0 day
Mus musculus [22] = assay: Inhibition of CCND1 expression in nude mouse xenografted with human SW1990 cells at 30 mg/kg, ip measured after 4 days by Q-PCR analysis; format: functional, organism-based; details: time 4.0 day
SW1990 [23] = assay: Induction of cell cycle arrest in human SW1990 cells assessed as accumulation of cells at G0/G1 phase at 1 uM incubated for 4 days by propidium iodide staining based flow cytometry (reference value: 64.79%); format: functional; details: time 4 day
SW1990 [24] = assay: Inhibition of homologous recombinant repair in human SW1990 cells assessed as reversal of Olaparib-induced FOXM1 expression at 1 to 2 uM after 4 days by Western blot analysis; format: functional, cell-based; details: dose 1-2 µM, time 4.0 day
SW1990 [25] = assay: Effect on ALDH1A1 gene expression in human SW1990 cells at 1 to 2 uM by Q-PCR analysis; format: functional, cell-based; details: dose 1-2 µM
SW1990 [26] = assay: Induction of apoptosis in human SW1990 cells assessed as necrotic cells at 1 uM measured after 4 days by Annexin V-FITC and propidium iodide staining based flow cytometry (reference value: 2.45%); format: functional; details: time 4 day
Mus musculus [27] = assay: Inhibition of PARP1 expression in nude mouse xenografted with human […] cells at 30 mg/kg, ip administered for 28 days by DAPI staining based laser confocal microscopic analysis; format: functional, organism-based; details: time 28.0 day
SW1990 [28] = assay: Inhibition of CDK1 protein expression in human SW1990 cells at 1 to 2 uM measured after 4 days by Western blot analysis; format: functional, cell-based; details: dose 1-2 µM, time 4.0 day
[29] = Toxicity in nude mouse xenografted with human SW1990 cells assessed as heart damage at 15 mg/kg, ip administered for 28 days in presence of 45 mg/kg Olaparib by H and E staining based fluorescence microscopic analysis; format: organism-based; details: in vivo, 672 h, time 28 day
SW1990 [30] = assay: Effect on MDC1 gene expression in human SW1990 cells at 1 uM in presence of Olaparib by Q-PCR analysis; format: functional, cell-based
SW1990 [31] = assay: Effect on FOXM1 gene expression in human SW1990 cells at 1 uM in presence of Olaparib by Q-PCR analysis; format: functional, cell-based
SW1990 [32] = assay: Induction of DNA damage in human SW1990 cells assessed as increase in gammaH2AX expression at 1 uM incubated for 4 days in presence of Olaparib by DAPI staining based laser confocal microscopic analysis; format: functional, cell-based; details: time 4.0 day
SW1990 [33] = assay: Induction of DNA damage in human SW1990 cells assessed as increase in tail DNA at 1 uM incubated for 4 days in presence of 3 uM Olaparib by comet assay; format: functional, cell-based; details: time 4.0 day
SW1990 [34] = assay: Effect on E2F2 gene expression in human SW1990 cells at 4 uM by Q-PCR analysis; format: functional, cell-based
SW1990 [35] = assay: Effect on CCND1 gene expression in human SW1990 cells at 1 uM in presence of Olaparib by Q-PCR analysis; format: functional, cell-based
SW1990 [36] = assay: Effect on CDK1 to 2 gene expression in human SW1990 cells at 1 uM in presence of Olaparib by Q-PCR analysis; format: functional, cell-based
SW1990 [37] = assay: Effect on HEXIM1 gene expression in human SW1990 cells at 1 uM in presence of Olaparib by Q-PCR analysis; format: functional, cell-based
SW1990 [38] = assay: Effect on CCND1 gene expression in human SW1990 cells at 4 uM by Q-PCR analysis; format: functional, cell-based
SW1990 [39] = assay: Effect on CDC25B gene expression in human SW1990 cells at 1 uM in presence of Olaparib by Q-PCR analysis; format: functional, cell-based
Mus musculus [40] = species on record: Mus musculus; details: dose 15.0 mg/kg, route ip, time 28.0 day

O=C(c1cc(Cc2n[nH]c(=O)c3ccccc23)ccc1F)N1CCN(C(=O)C2CC2)CC1 [OLAPARIB]
Activity (Mus musculus [1]): Active
Activity (Mus musculus [2]): Active
Activity (SW1990 [3]): Active
Activity (SW1990 [4]): 1.84%
Activity (SW1990 [5]): Active
Activity (SW1990 [6]): Active
Activity [7]: Non-Toxic
Activity (Mus musculus [8]): Active
Activity (SW1990 [9]): Active
Activity (SW1990 [10]): Active
Activity (SW1990 [11]): Active
Activity (Mus musculus [12]): Active
Activity (SW1990 [13]): Active
Activity (Mus musculus [14]): Active

Cc1noc(C)c1-c1ccc2c(c1)C(c1ccccc1)N(Cc1nc3c(C(N)=O)cccc3[nH]1)C(=O)N2C (stereo not given)
Activity (SW1990 [15]): Active
IC50 [16]: 202 nM
Activity (SW1990 [17]): Active
Activity (SW1990 [18]): Active
inhibition (Mus musculus [19]): Active
inhibition (Mus musculus [20]): Active
inhibition (Mus musculus [21]): Active
inhibition (Mus musculus [22]): Active
Activity (SW1990 [23]): 74.9%
inhibition (SW1990 [24]): Active
Activity (SW1990 [25]): Active
Activity (SW1990 [26]): 3.62%
inhibition (Mus musculus [27]): Active
inhibition (SW1990 [28]): Active

Cc1sc2c(c1C)C(c1ccc(Cl)cc1)=N[C@@H](CC(=O)OC(C)(C)C)c1nnc(C)n1-2
Activity [29]: Non-Toxic
Activity (SW1990 [30]): Active
Activity (SW1990 [31]): Active
Activity (SW1990 [32]): Active
Activity (SW1990 [33]): Active
Activity (SW1990 [34]): Active
Activity (SW1990 [35]): Active
Activity (SW1990 [36]): Active
Activity (SW1990 [37]): Active
Activity (SW1990 [38]): Active
Activity (SW1990 [39]): Active
inhibition (Mus musculus [40]): Active
